According to US10717733B2, “Haloallylamine indole and azaindole derivative inhibitors of lysyl oxidases and uses thereof” (PHARMAXIS LTD., priority 2016, dated 2020):
Where a name gives a salt, the structure may show the parent alone.

Key:
[1] = test system: bleomycin induced lung fibrosis; experiment: Bleomycin induced lung fibrosis model; format: in vivo; conditions: mouse, intranasal bleomycin, 15 mg/kg
Protocol: Bleomycin induced lung fibrosis in rodents is a widely accepted experimental model to determine the anti-fibrotic activity of therapeutic agents.
Fibrosis is induced by intranasal administered of bleomycin sulphate at a dose of 0.05 U/mouse in a total volume of 50 uL PBS (see Corbel, M., et al Inhibition of bleomycin-induced pulmonary fibrosis in mice by the matrix metalloproteinase inhibitor batimastat J Pathol. 2001 April; 193(4):538-45.) Compound 12 is given 0.1-100 mg/Kg throughout the period of the experimental procedure or 7 days after bleomycin administration and then throughout the entire study.
Formalin fixed lungs sections stained with haematoxylin and eosin are assessed for fibrosis as per the scale outlined by Ashcroft et al (Simple method of estimating severity of pulmonary fibrosis on a numerical scale J Clin Pathol 1988; 41:467-470).

[2] = test system: Streptozotocin (STZ)-induced diabetic nephropathy; experiment: Streptozotocin induced diabetic nephropathy (kidney fibrosis) model; format: in vivo, mouse; conditions: diabetic eNOS knockout mice, 24 weeks, 0.1-100 mg/Kg
Protocol: Streptozotocin (STZ)-induced diabetic nephropathy is commonly used for creating rodent models of type 1 diabetes which develop renal injury, due to pancreatic cell damage with similarities to human diabetic nephropathy.
Diabetes is induced in eNOS knockout mice on C57BL/6 background by intraperitoneal STZ injection (55 mg/kg in 0.1 M citrate buffer) in mice of 6-9 weeks of age (see Huang C et al, Blockade of KCa3.1 ameliorates renal fibrosis through a TGF-bl/Smad pathway in diabetic mice. Diabetes, 2013 62(8):2923-2934).
Blood sugar level (BSL) is determined by tail vein blood. Mice with BSL>16 mmol/L two weeks post STZ injection are considered diabetic. Treatment with Compound 12 is carried out for 24 weeks from diagnosis of diabetes at a dose of 0.1-100 mg/Kg.

[3] = test system: CCl4 induced liver fibrosis; experiment: CCl4 induced liver fibrosis model; format: in vivo, rat; conditions: 0.1-100 mg/Kg
Protocol: An analysis of the use of LOXL2 inhibitors to treat inflammatory/fibrotic diseases is performed through the use of a CCl4 induced liver fibrosis model. Liver injury is frequently followed by complete parenchymal regeneration due to regenerative potency of hepatocytes. Continuous liver injury due to the administration of CCl4 leads to extracellular matrix accumulation, accompanied by recurrent hepatocyte necrosis, inflammation, and regenerative processes, causing liver fibrosis and consequently liver cirrhosis (see Natsume, M., et al., Attenuated liver fibrosis and depressed serum albumin levels in carbon tetrachloride-treated IL-6-deficient mice. J. Leukoc. Biol., 1999, 66, 601-608 also See Yao, Q, Y., et al. Inhibition by curcumin of multiple sites of the transforming growth factor-beta1 signalling pathway ameliorates the progression of liver fibrosis induced by carbon tetrachloride in rats. BMC Complement Altern Med. 2012 Sep. 16; 12(1):156.)
Rats are administered orally with CCl4 at a concentration of 0.25 μL/g in olive oil, 3 times per week for 6 weeks. Compound 25 is given 0.1-100 mg/Kg throughout the period of the experimental procedure or only 3 weeks after CCl4 administration and then throughout the entire study. […]

| Compound | Ashcroft score in the lungs [1] | kidney function by albumin/creatinine ratio quantification [2] | reduction of fibrosis by Masson's Trichrome staining (collagen expression and glomerular damage) ([2]; vs vehicle-treated group) | inhibition of liver collagen by hydroxyproline analysis ([3]; CCl4 model, statistically significant) [%] | reduction of liver fibrosis by liver sirius red staining with quantification ([3]; rats, CCl4 orally 6 weeks, vs vehicle-treated group) |
| --- | --- | --- | --- | --- | --- |
| CCOC(=O)c1ccc2c(c1)c(-c1cccc(S(=O)(=O)N(C)C)c1)c(C)n2C/C(F)=C/CN [Compound 12, (Z)-ethyl 1-(4-amino-2-fluorobut-2-en-1-yl)-3-(3-(N,N-dimethylsulfamoyl)phenyl)-2-methyl-1H-indole-5-carboxylate] | significantly reduced | significant improvement | up to 50% | – | – |
| Cc1c(-c2cccc(S(=O)(=O)N(C)C)c2)c2ncccc2n1C/C(F)=C/CN [Compound 25, (Z)-3-(1-(4-amino-2-fluorobut-2-en-1-yl)-2-methyl-1H-pyrrolo[3,2-b]pyridin-3-yl)-N,N-dimethylbenzenesulfonamide Dihydrochloride] | – | – | – | > 30 | up to 50% |
